Measured values published in patent EP0908457B1, “3-(1,2-benzisothiazol- and isoxazol-5-Y1)-2,4(1H,3H)-pyrimidinedione or thione and 3-(1,2-benzisothiazol- and isoxazol-5-y1)-4(3H)-pyrimidinone or thione herbicidal agents” (BASF AKTIENGESELLSCHAFT, priority 1997, dated 1999).

Key:
[1] = tested on: Cyperus serotinus, Rottb.; test: Preemergence weed control under flooded paddy conditions, CYPSE (Flatsedge); format: in vivo; for herbicidal effect rating, CYPSE: meaning of each grade not given here
[2] = tested on: Oryza sativa, (L.) Tebonnet; test: Rice tolerance to post-transplant applications under flooded paddy conditions (Example 187), ORYSAT (Rice, Tebonnet); for herbicidal effect rating ORYSAT: meaning of each grade not given here
Cyperus iria = test: Preemergence weed control under flooded paddy conditions, CYPIR (Rice Flatsedge); format: in vivo; settings: flooded paddy; for herbicidal effect rating, CYPIR: meaning of each grade not given here
[3] = tested on: Echinochloa oryzoides (Ard.) Fritsch.; test: Preemergence weed control under flooded paddy conditions, ECHORC (Watergrass (Calif.)); format: in vivo; settings: flooded paddy; for herbicidal effect rating, ECHORC: meaning of each grade not given here
Sagittaria pygmaea, L. = test: Preemergence weed control under flooded paddy conditions, SAGPY (Arrowhead (Pygmaea)); format: in vivo; settings: flooded paddy; for herbicidal effect rating, SAGPY: meaning of each grade not given here
[4] = tested on: Monochoria vaginalis, Presl.; test: Preemergence weed control under flooded paddy conditions, MOOVA (Monochoria); format: in vivo; settings: flooded paddy; for herbicidal effect rating, MOOVA: meaning of each grade not given here
[5] = Rate 0.0320 kg/ha, preemergence weeds, rated three to four weeks after treatment
[6] = Rate 0.0620 kg/ha, preemergence weeds, rated three to four weeks after treatment
[7] = Rate 0.1250 kg/ha, preemergence weeds, rated three to four weeks after treatment
[8] = Rate 0.2500 kg/ha, preemergence weeds, rated three to four weeks after treatment
[9] = Rate 0.0320 kg/ha, rated three to four weeks after treatment
[10] = Rate 0.0620 kg/ha, rated three to four weeks after treatment
[11] = Rate 0.1250 kg/ha, rated three to four weeks after treatment
[12] = Rate 0.2500 kg/ha, rated three to four weeks after treatment
[13] = Rate 0.0320 kg/ha, preemergence, rated three to four weeks after treatment
[14] = Rate 0.0620 kg/ha, preemergence, rated three to four weeks after treatment
[15] = Rate 0.1250 kg/ha, preemergence, rated three to four weeks after treatment
[16] = Rate 0.2500 kg/ha, preemergence, rated three to four weeks after treatment
[17] = Rate 0.5000 kg/ha, preemergence, rated three to four weeks after treatment
[18] = Rate 0.0320 kg/ha, preemergence, rated 3-4 weeks after treatment
[19] = Rate 0.0620 kg/ha, preemergence, rated 3-4 weeks after treatment
[20] = Rate 0.1250 kg/ha, preemergence, rated 3-4 weeks after treatment
[21] = Rate 0.2500 kg/ha, preemergence, rated 3-4 weeks after treatment
[22] = 0.0313 kg/ha, preemergence weeds, rated three to four weeks after treatment
[23] = 0.0625 kg/ha, preemergence weeds, rated three to four weeks after treatment
[24] = 0.1250 kg/ha, preemergence weeds, rated three to four weeks after treatment
[25] = 0.2500 kg/ha, preemergence weeds, rated three to four weeks after treatment

Structure (SMILES): CC(Oc1ccccc1-c1nsc2ccc(-n3c(=O)cc(C(F)(F)F)n(C)c3=O)cc12)C(=O)O (stereo not drawn) [Example 314, Propionic acid, 2-{o-{5-[3,6-dihydro-3-methyl-2,6-dioxo-4-(trifluoromethyl)-1(2H)-pyrimidinyl]-1,2-benzisothiazol-3-yl}phenoxy}-]
- herbicidal effect rating, CYPSE [1, 5]: 0.0
- herbicidal effect rating, CYPSE [1, 6]: 0.0
- herbicidal effect rating, CYPSE [1, 7]: 0.0
- herbicidal effect rating, CYPSE [1, 8]: 0.0
- herbicidal effect rating ORYSAT [2, 9]: 3.0
- herbicidal effect rating ORYSAT [2, 10]: 3.0
- herbicidal effect rating ORYSAT [2, 11]: 4.0
- herbicidal effect rating ORYSAT [2, 12]: 5.0
- herbicidal effect rating, CYPIR (Cyperus iria; [5]): 9.0
- herbicidal effect rating, CYPIR (Cyperus iria; [6]): 9.0
- herbicidal effect rating, CYPIR (Cyperus iria; [7]): 9.0
- herbicidal effect rating, CYPIR (Cyperus iria; [8]): 9.0
- herbicidal effect rating, ECHORC [3, 5]: 5.0
- herbicidal effect rating, ECHORC [3, 6]: 5.0
- herbicidal effect rating, ECHORC [3, 7]: 9.0
- herbicidal effect rating, ECHORC [3, 8]: 9.0
- herbicidal effect rating, SAGPY (Sagittaria pygmaea, L.; [5]): 0.0
- herbicidal effect rating, SAGPY (Sagittaria pygmaea, L.; [6]): 0.0
- herbicidal effect rating, SAGPY (Sagittaria pygmaea, L.; [7]): 0.0
- herbicidal effect rating, SAGPY (Sagittaria pygmaea, L.; [8]): 0.0
- herbicidal effect rating, MOOVA [4, 5]: 9.0
- herbicidal effect rating, MOOVA [4, 6]: 9.0
- herbicidal effect rating, MOOVA [4, 7]: 9.0
- herbicidal effect rating, MOOVA [4, 8]: 9.0

Structure (SMILES): Cn1c(C(F)(F)F)cc(=O)n(-c2ccc3snc(CS(=O)(=O)CC(=O)O)c3c2)c1=O [Example 282, Acetic acid, {{{5-[3,6-dihydro-3-methyl-2,6-dioxo-4-(trifluoromethyl)-1(2H)-pyrimidinyl]-1,2-benzisothiazol-3-yl}methyl}sulfonyl}-]
- CYPSE herbicidal effect rating [1, 13]: 0.0
- CYPSE herbicidal effect rating [1, 14]: 0.0
- CYPSE herbicidal effect rating [1, 15]: 0.0
- CYPSE herbicidal effect rating [1, 16]: 0.0
- CYPSE herbicidal effect rating [1, 17]: 0.0
- ORYSAT herbicidal effect rating [2, 9]: 2.0
- ORYSAT herbicidal effect rating [2, 10]: 3.0
- ORYSAT herbicidal effect rating [2, 11]: 4.0
- ORYSAT herbicidal effect rating [2, 12]: 4.0
- ORYSAT herbicidal effect rating ([2]; Rate 0.5000 kg/ha, rated three to four weeks after treatment): 0.0
- CYPIR herbicidal effect rating (Cyperus iria; [13]): 4.0
- CYPIR herbicidal effect rating (Cyperus iria; [14]): 8.0
- CYPIR herbicidal effect rating (Cyperus iria; [15]): 8.0
- CYPIR herbicidal effect rating (Cyperus iria; [16]): 8.0
- CYPIR herbicidal effect rating (Cyperus iria; [17]): 9.0
- ECHORC herbicidal effect rating [3, 13]: 0.0
- ECHORC herbicidal effect rating [3, 14]: 0.0
- ECHORC herbicidal effect rating [3, 15]: 1.9
- ECHORC herbicidal effect rating [3, 16]: 0.0
- ECHORC herbicidal effect rating [3, 17]: 0.0
- SAGPY herbicidal effect rating (Sagittaria pygmaea, L.; [13]): 0.0
- SAGPY herbicidal effect rating (Sagittaria pygmaea, L.; [14]): 0.0
- SAGPY herbicidal effect rating (Sagittaria pygmaea, L.; [15]): 0.0
- SAGPY herbicidal effect rating (Sagittaria pygmaea, L.; [16]): 0.0
- SAGPY herbicidal effect rating (Sagittaria pygmaea, L.; [17]): 0.0
- MOOVA herbicidal effect rating [4, 13]: 6.0
- MOOVA herbicidal effect rating [4, 14]: 9.0
- MOOVA herbicidal effect rating [4, 15]: 9.0
- MOOVA herbicidal effect rating [4, 16]: 9.0
- MOOVA herbicidal effect rating [4, 17]: 9.0

Structure (SMILES): COCCCOCCCOC(=O)COc1ccc(C)cc1-c1nsc2ccc(-n3c(=O)cc(C(F)(F)F)n(C)c3=O)cc12 [Example 536, Acetic acid, {{2-{5-[3,6-dihydro-3-methyl-2,6-dioxo-4-(trifluoromethyl)-1(2H)-pyrimidinyl]-1,2-benzisothiazol-3-yl}-p-tolyl}oxy}-, 3-(3-methoxypropoxy)propyl ester]
- herbicidal effect rating, CYPSE [1, 18]: 0.0
- herbicidal effect rating, CYPSE [1, 19]: 0.0
- herbicidal effect rating, CYPSE [1, 20]: 0.0
- herbicidal effect rating, CYPSE [1, 21]: 0.0
- herbicidal effect rating ORYSAT ([2]; Rate 0.0320 kg/ha, rated 3-4 weeks after treatment): 0.0
- herbicidal effect rating ORYSAT ([2]; Rate 0.0620 kg/ha, rated 3-4 weeks after treatment): 0.0
- herbicidal effect rating ORYSAT ([2]; Rate 0.1250 kg/ha, rated 3-4 weeks after treatment): 1.0
- herbicidal effect rating ORYSAT ([2]; Rate 0.2500 kg/ha, rated 3-4 weeks after treatment): 4.0
- herbicidal effect rating, CYPIR (Cyperus iria; [18]): 0.0
- herbicidal effect rating, CYPIR (Cyperus iria; [19]): 0.0
- herbicidal effect rating, CYPIR (Cyperus iria; [20]): 0.0
- herbicidal effect rating, CYPIR (Cyperus iria; [21]): 4.0
- herbicidal effect rating, ECHORC [3, 18]: 3.0
- herbicidal effect rating, ECHORC [3, 19]: 4.0
- herbicidal effect rating, ECHORC [3, 20]: 5.0
- herbicidal effect rating, ECHORC [3, 21]: 9.0
- herbicidal effect rating, SAGPY (Sagittaria pygmaea, L.; [18]): 0.0
- herbicidal effect rating, SAGPY (Sagittaria pygmaea, L.; [19]): 0.0
- herbicidal effect rating, SAGPY (Sagittaria pygmaea, L.; [20]): 0.0
- herbicidal effect rating, SAGPY (Sagittaria pygmaea, L.; [21]): 0.0
- herbicidal effect rating, MOOVA [4, 18]: 9.0
- herbicidal effect rating, MOOVA [4, 19]: 9.0
- herbicidal effect rating, MOOVA [4, 20]: 9.0
- herbicidal effect rating, MOOVA [4, 21]: 9.0

Structure (SMILES): Cn1c(C(F)(F)F)cc(=O)n(-c2ccc3snc(COCC(F)F)c3c2)c1=O [Example 203, 3-{3-[(2,2-Difluoroethoxy)methyl]-1,2-benzisothiazol-5-yl}-1-methyl-6-(trifluoromethyl)-2,4(1H,3H)-pyrimidinedione]
- herbicidal effect rating, CYPSE [1, 22]: 0.0
- herbicidal effect rating, CYPSE [1, 23]: 0.0
- herbicidal effect rating, CYPSE [1, 24]: 2.0
- herbicidal effect rating, CYPSE [1, 25]: 6.0
- herbicidal effect rating, ORYSAT (rice tolerance) ([2]; 0.0313 kg/ha, rated three to four weeks after treatment): 4.0
- herbicidal effect rating, ORYSAT (rice tolerance) ([2]; 0.0625 kg/ha, rated three to four weeks after treatment): 6.0
- herbicidal effect rating, ORYSAT (rice tolerance) ([2]; 0.1250 kg/ha, rated three to four weeks after treatment): 6.0
- herbicidal effect rating, ORYSAT (rice tolerance) ([2]; 0.2500 kg/ha, rated three to four weeks after treatment): 7.0
- herbicidal effect rating, CYPIR (Cyperus iria; [22]): 9.0
- herbicidal effect rating, CYPIR (Cyperus iria; [23]): 9.0
- herbicidal effect rating, CYPIR (Cyperus iria; [24]): 9.0
- herbicidal effect rating, CYPIR (Cyperus iria; [25]): 9.0
- herbicidal effect rating, ECHORC [3, 22]: 0.0
- herbicidal effect rating, ECHORC [3, 23]: 0.0
- herbicidal effect rating, ECHORC [3, 24]: 2.0
- herbicidal effect rating, ECHORC [3, 25]: 4.0
- herbicidal effect rating, SAGPY (Sagittaria pygmaea, L.; [22]): 0.0
- herbicidal effect rating, SAGPY (Sagittaria pygmaea, L.; [23]): 0.0
- herbicidal effect rating, SAGPY (Sagittaria pygmaea, L.; [24]): 2.0
- herbicidal effect rating, SAGPY (Sagittaria pygmaea, L.; [25]): 4.0
- herbicidal effect rating, MOOVA [4, 22]: 0.0
- herbicidal effect rating, MOOVA [4, 23]: 0.0
- herbicidal effect rating, MOOVA [4, 24]: 2.0
- herbicidal effect rating, MOOVA [4, 25]: 8.0
